Measured values as given in patent publication US10544190B2, “Peptide that supresses binding of beta-amyloid and rage” (ENSOL BIOSCIENCES INC., priority 2016, dated 2020).
Where a SMILES comes first, the peptide text is derived from it. Where no end group is shown, it is not given here.

Assays:
beta-amyloid 1-42 [1] = experiment: Inhibition of entry of beta-amyloid 1-42 into brain II (ELISA of brain); format: in vivo; conditions: ICR mice, peptide 25 mg/kg intraperitoneally; for Beta-amyloid 1-42 concentration in brain: 20 min before i.v. 25 μM beta-amyloid 1-42, control group 60.8 ± 14.8, normal group 0.0 ± 11.9
Method: Based on the test results of Example 1, the following test was conducted in order to evaluate whether Example 2 and Comparative Examples 1 and 2, in addition to Example 1, are effective at inhibiting the entry of beta-amyloid 1-42 into the brain.
Specifically, 1 mg ofbeta-amyloid 1-42 (American Peptide Company, Sunnyvale, Calif., USA) was added with 2 ml of hexafluoroisopropanol (HFIP), allowed to stand at room temperature for 3 days, and aliquoted at 100 μl each into tubes. After evaporation of hexafluoroisopropanol (HFIP) using a speed vacuum, 10 μl of an anhydrous DMSO (dimethyl sulfoxide) solution was placed in one of the aliquoted tubes, so as to realize sufficient dissolution, after which 400 μl of phosphate buffer saline (PBS) was added thereto, thus preparing a 25 μM beta-amyloid 1-42 solution.
ICR mice (The Jackson Laboratory, Bar Harbor, Me., USA) were divided into a normal group, a control group and four test groups. The respective test groups were intraperitoneally administered with the peptide of each of Example 1, Example 2, Comparative Example 1, and Comparative Example 2 in amounts of 25 mg/kg, and the control group was treated in the same manner as in the test group, with the exception that an excipient (10% DMSO in saline, 10 ml/kg) was used in lieu of the peptide. After 20 min, the control group and the test groups were intravenously (i.v.) injected through the tail vein with 400 μl of 25 μM beta-amyloid 1-42. Furthermore, the normal group was treated in the same manner as in the control group, with the exception that beta-amyloid 1-42 was not added. 10 min after the tail venous injection of beta-amyloid, about 50 μl of blood was collected from the infraorbital vein of each mouse using a sodium-heparinized capillary tube, after which the mouse was immediately subjected to euthanasia with carbon dioxide (CO2) gas and then the right hemisphere of the mouse was extracted and stored in liquid nitrogen. All the collected blood samples were centrifuged at 13,000 rpm for 10 min. The supernatant was isolated, placed in the prepared tube, and diluted at 1/4000, followed by ELISA (Enzyme-Linked ImmunoSorbent Assay or Enzyme-Linked ImmunoSpecific Assay) ofbeta-amyloid 1-42.
The frozen right hemisphere was added with 3 ml of a RIPA buffer (Radio Immuno Precipitation Assay buffer), sonicated, and centrifuged, after which the supernatant was isolated, followed by protein concentration measurement through BCA assay (bicinchoninic acid assay). BCA assay was performed in accordance with the kit (Thermo Scientific, Waltham, Mass., USA, Cat. No. 23227) protocol. The beta-amyloid 1-42 concentration in the brain was measured through ELISA in a RIPA-homogenate. ELISA was performed in accordance with the kit (IBL International, Hamburg, Germany, Code No. 27711) protocol.

beta-amyloid 1-42 [2] = experiment: Inhibition of entry of blood beta-amyloid 1-42 into brain I (ELISA of brain and plasma); format: in vivo; conditions: ICR mice; for beta-amyloid 1-42 concentration in the brain: 20 min before i.v. 400 μl of 25 μM beta-amyloid 1-42, brain taken 10 min after
Method: The inhibition of entry of blood beta-amyloid 1-42 into the brain by the peptide of Example 1 was experimentally verified. Specifically, in order to evaluate the effect of the peptide of Example 1 on inhibiting the entry of beta-amyloid 1-42 into the brain, which is the cause of Alzheimer's disease, 1 mg of beta-amyloid 1-42 (American Peptide Company, Sunnyvale, Calif., USA) was added with 2 ml of hexafluoroisopropanol (HFIP), allowed to stand at room temperature for 3 days, and aliquoted at 100 μl each into tubes. After evaporation of hexafluoroisopropanol (HFIP) using a speed vacuum, 10 μl of an anhydrous DMSO (dimethyl sulfoxide) solution was placed in one of the aliquoted tubes, so as to realize sufficient dissolution, after which 400 μl of phosphate buffer saline (PBS) was added thereto, thus preparing a 25 μM beta-amyloid 1-42 solution.
ICR mice (The Jackson Laboratory, Bar Harbor, Me., USA) were divided into a normal group, a control group and two test groups. The respective test groups were intraperitoneally administered with the peptide of Example 1 in amounts of 2.5 mg/kg and 25 mg/kg, and the control group was treated in the same manner as in the test group, with the exception that an excipient (10% DMSO in saline, 10 ml/kg) was used in lieu of the peptide of Example 1. After 20 min, the control group and the test groups were intravenously (i.v.) injected through the tail vein with 400 μl of 25 μM beta-amyloid 1-42. Furthermore, the normal group was treated in the same manner as in the control group, with the exception that beta-amyloid 1-42 was not added. […]
The frozen right hemisphere was added with 3 ml of a RIPA buffer (Radio Immuno Precipitation Assay buffer), sonicated, and centrifuged, after which the supernatant was isolated, followed by protein concentration measurement through BCA assay (bicinchoninic acid assay). […] The beta-amyloid 1-42 concentration in the brain was measured through ELISA in a RIPA-homogenate. […]

[3] = system: GFAP (glial fibrillary acidic protein); experiment: Biomarker change in animal models: brain GFAP by ELISA; format: in vivo, DTg mouse; conditions: DTg mice, 50 mg/kg intraperitoneally for 13 weeks; control 70.61±26.82
Method: (§1) In order to evaluate the effect of changing the biomarker using animal models in which an administration period of a total of 13 weeks was terminated in the <Evaluation of learning and memory recovery effects using animal models> test, the following test was conducted. After termination of intraperitoneal administration for a total of 13 weeks, the animal models were subjected to euthanasia using carbon dioxide (CO2) and the brain thereof was immediately extracted. Upon brain extraction, the entire brain was taken out so as not to be scratched, and was then lightly washed with saline solution. […]
(§2) The left hemisphere stored in a deep freezer at −80° C. was placed in a RIPA buffer (Radio Immuno Precipitation Assay buffer) and sonicated, thus preparing a brain homogenate. Thereafter, the amount of protein was measured through BCA assay (BicinChoninic Acid assay). […] The biomarker expression level was measured through ELISA, and ELISA assay was performed in accordance with the kit{Amyloid-beta(1-42) Elisa kit: IBL International, Hamburg, Germany (27711), TNF-alpha ELISA kit: Koma Biotech, Seoul, Korea (K0331186P), GFAP Elisa kit: Millipore Corporation, Billerica, Mass., USA (NS830)} protocol. […]
(§3) The biomarkers measured through ELISA were beta-amyloid 1-42, TNF-alpha, and GFAP (glial fibrillary acidic protein). […]

TNF-alpha = experiment: Biomarker change in animal models: brain TNF-alpha by ELISA; format: in vivo, DTg mouse; conditions: DTg mice, 50 mg/kg intraperitoneally for 13 weeks; control 1109.91±285.30; p<0.05
Method: as §1, §2, §3

beta-amyloid 1-42 [4] = experiment: Biomarker change in animal models: brain beta-amyloid 1-42 by ELISA; format: in vivo, DTg mouse; conditions: DTg mice, 50 mg/kg intraperitoneally for 13 weeks; control 76.03±25.63
Method: as §1, §2, §3

[5] = system: double transgenic mouse (DTg mouse) models having induced human Alzheimer's disease; experiment: Learning and memory recovery, Y-maze test in Alzheimer's model mice; format: in vivo; conditions: 50 mg/kg intraperitoneally once a day, 5 times a week, test 10 weeks after administration, control 49.44±3.88%, P<0.01
Source text: The learning and memory recovery effects of the peptide of Example 1 were experimentally verified. Specifically, in order to evaluate the effect of the peptide of Example 1 on inhibiting learning and memory reduction, which are symptoms of Alzheimer's disease, 30-week-old double transgenic mouse (DTg mouse, Jackson Laboratory, USA) models having induced human Alzheimer's disease, obtained in a manner in which a human-derived gene of beta-amyloid precursor protein APP (APPsw; amyloid mutation) having Swedish mutation and a human-derived gene in the form of exon-9 deletion of a gamma secretase PSI gene were over-expressed in the brain through genetic manipulation, were used for tests.
The test animals were acclimated in an animal room after purchase in accordance with the Guidelines for Experimental Animal Tests and treated in accordance with the approved Animal Experimental Plan. The test conditions were maintained at a temperature of 23±1° C. and a humidity of 50±5%, and the light/dark cycle was 12 hr ([…]). During the testing, animals were free to consume water and feed. […]
The Y-maze test is an experiment to observe the voluntary tendency of an animal to search a new environment using short-term memory ability. […] Spontaneous alternation (%) was calculated using the following equation. […]

For VKMDAEFR [Comparative Example 2], the “entry of beta-amyloid into the brain (result in words)” value (shortened to “entry of beta-amyloid into the brain”) (beta-amyloid 1-42 [1]) was “did not inhibit” and the “Beta-amyloid 1-42 concentration in brain” value (beta-amyloid 1-42 [1]) was 87.6 ± 14.9 pg/mg protein.

For DAEF [Comparative Example 1], the “entry of beta-amyloid into the brain” value (beta-amyloid 1-42 [1]) was “did not inhibit” and the “Beta-amyloid 1-42 concentration in brain” value (beta-amyloid 1-42 [1]) was 69.5 ± 6.1 pg/mg protein.

In the case of DGEFF [Example 1, DGEFF], the “beta-amyloid 1-42 concentration in the brain” value (beta-amyloid 1-42 [2]; peptide 2.5 mg/kg intraperitoneally) is reported as 195.5 ± 5.6 pg/mg, the “beta-amyloid 1-42 concentration in the brain” value (beta-amyloid 1-42 [2]; peptide 25 mg/kg intraperitoneally) is reported as 187.8 ± 2.4 pg/mg and the “plasma beta-amyloid levels versus control group” value (beta-amyloid 1-42 [2]; peptide 2.5 and 25 mg/kg intraperitoneally, blood 10 min after i.v. beta-amyloid 1-42) is reported as “not greatly different”. The “GFAP concentration in brain homogenate” value [3] was 47.63±24.92 ng/mg protein, the “TNF-alpha concentration in brain homogenate” value (TNF-alpha) was 798.99±172.90 pg/mg protein and the “beta-amyloid 1-42 concentration in brain homogenate” value (beta-amyloid 1-42 [4]) was 57.56±28.47 ng/mg protein. For the same molecule, the “spontaneous alternation (Y-maze test)” value [5] was 63.22±2.56% and the “Beta-amyloid 1-42 concentration in brain” value (beta-amyloid 1-42 [1]) was 54.8 ± 8.0 pg/mg protein.

`N[C@@H](CC(=O)O)C(=O)NCC(=O)N[C@@H](CCC(=O)O)C(=O)N[C@@H](Cc1ccccc1)C(=O)O` [Example 2, DGEF] (H-DGEF-OH; N-terminus and C-terminus assumed) was tested, and the “entry of beta-amyloid into the brain” value (beta-amyloid 1-42 [1]) was “effectively inhibited” and the “Beta-amyloid 1-42 concentration in brain” value (beta-amyloid 1-42 [1]) was 48.8 ± 14.7 pg/mg protein.
